Source: publication PMC7660650, “Chemical Starting Matter for HNF4α Ligand Discovery and Chemogenomics” (International Journal of Molecular Sciences, 2020)
Where “and” joins values, the source holds several entries; their conditions need not be identical. Identical values can stand only once.

biological target: T1, Gal4-HNF4α (human HNF4α LBD) (Homo sapiens, UniProt P41235); assay: Hybrid Gal4-HNF4α reporter gene assay in transiently transfected HEK293T cells; type: cell-based; conditions: not given
T1 construct: uniprot entry: P41235-1, residues 142-377; expressed in transfected cells; host or cells: HEK293T
T1 sequence (P41235 142-377): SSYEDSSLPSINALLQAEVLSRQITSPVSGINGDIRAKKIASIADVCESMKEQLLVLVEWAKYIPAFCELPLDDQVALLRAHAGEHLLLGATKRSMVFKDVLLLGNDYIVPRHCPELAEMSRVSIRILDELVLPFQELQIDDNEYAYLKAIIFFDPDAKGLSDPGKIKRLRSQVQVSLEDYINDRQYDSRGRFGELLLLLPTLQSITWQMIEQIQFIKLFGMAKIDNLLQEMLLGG

| SMILES | HNF4a-screening_activity_(mean_of_n=2) |
| --- | --- |
| Nc1cc2ccccc2oc1=O [Prestw-Frag-1001, Nc1cc2ccccc2oc1=O] | 0.9336 and 1.001 |
| Oc1cccc2cccnc12 [Prestw-Frag-2592, Oc1cccc2cccnc12] | 0.6969 |
| c1ccc2c3c([nH]c2c1)CCCC3 [Prestw-Frag-2780, C1CCc2c(C1)[nH]c1ccccc21] | 0.7267 |

same assay, conditions: Table S1, primary screening, 50 µM

| SMILES | HNF4a-screening_activity_(mean_of_n=2) |
| --- | --- |
| CC(=O)Nc1ncc([N+](=O)[O-])s1 [Prestw-Frag-1750, CC(=O)Nc1ncc(s1)[N+]([O-])=O] | 1.04 and 0.8827 |
| C[C@@H](O)c1cc(C(F)(F)F)cc(C(F)(F)F)c1 [Prestw-Frag-2849, C[C@@H](O)c1cc(cc(c1)C(F)(F)F)C(F)(F)F] | 1.171 |
| c1ccc(C(c2ccccc2)n2ccnc2)cc1 [Prestw-Frag-2868, c1cn(cn1)C(c1ccccc1)c1ccccc1] | 0.7887 |
| OCc1ccncc1 [Prestw-Frag-2303, OCc1ccncc1] | 0.9833 |
| Cc1cc(=O)n(-c2ccccc2)[nH]1 [Prestw-Frag-1028, Cc1cc(=O)n([nH]1)-c1ccccc1] | 1.027 |
| CCCCOc1cc(C(=O)OC)ccc1N [Prestw-Frag-2253, CCCCOc1cc(ccc1N)C(=O)OC] | 0.8932 |
| c1nc(NC2CC2)c2nc[nH]c2n1 [Prestw-Frag-3360, C1CC1Nc1ncnc2[nH]cnc12] | 1.055 |
| CNCCc1c[nH]c2ccccc12 [Prestw-Frag-1356, CNCCc1c[nH]c2ccccc12] | 0.7184 and 0.9553 |
| O=c1ccc2ccccc2o1 [Prestw-Frag-1000, O=c1ccc2ccccc2o1] | 1.227 |
| CC(C)C1NCCc2c1[nH]c1ccccc21 (stereo not shown) [Prestw-Frag-1264, CC(C)C1NCCc2c1[nH]c1ccccc21] | 1.008 |
| Cc1cccc(Nc2ccccc2C(=O)O)c1 [Prestw-Frag-1320, Cc1cccc(Nc2ccccc2C(O)=O)c1] | 0.7946 and 1.022 |
| CN1CCN(C(c2ccccc2)c2ccccc2)CC1 [Prestw-Frag-1325, CN1CCN(CC1)C(c1ccccc1)c1ccccc1] | 0.9831 |
| NC(=O)N1CCNCC1 [Prestw-Frag-3723, NC(=O)N1CCNCC1] | 1.067 |
| O=C(O)CCCc1ccc(-c2ccccc2)cc1 [Prestw-Frag-1767, OC(=O)CCCc1ccc(cc1)-c1ccccc1] | 0.6264 |
| c1ccc(CCn2ccnc2)cc1 [Prestw-Frag-2608, C(Cn1ccnc1)c1ccccc1] | 0.9707 |
| CS(=O)(=O)c1ccc(N)cc1 [Prestw-Frag-1214, CS(=O)(=O)c1ccc(N)cc1] | 1.202 |
| OCC1CCCNC1 (stereo not shown) [Prestw-Frag-3728, OCC1CCCNC1] | 1.103 |
| CS(=O)(=O)NC(Cc1ccccc1)C(=O)O (stereo not shown) [Prestw-Frag-3362, CS(=O)(=O)NC(Cc1ccccc1)C(O)=O] | 1.241 |
| c1ccc(N2CCNCC2)nc1 [Prestw-Frag-1110, C1CN(CCN1)c1ccccn1] | 1.308 |
| C(=C\c1ccccc1)/CN1CCNCC1 [Prestw-Frag-1163, C(\C=C\c1ccccc1)N1CCNCC1] | 1.316 |
| NCCOCc1ccccc1 [Prestw-Frag-3749, NCCOCc1ccccc1] | 0.8708 |
| O=C(O)C1(c2ccccc2)CCCC1 [Prestw-Frag-2049, OC(=O)C1(CCCC1)c1ccccc1] | 0.9983 |
| O=C1c2ccccc2CN1c1ccccc1 [Prestw-Frag-2360, O=C1N(Cc2ccccc12)c1ccccc1] | 1.345 |

| SMILES | HNF4a-screening_activity_(mean_of_n=2) |
| --- | --- |
| COC(=O)C1=C(C)NC(C)=C(C(=O)OC)C1 [Prestw-Frag-1547, COC(=O)C1=C(C)NC(C)=C(C1)C(=O)OC] | 0.9986 |
| Cc1nccn1CCO [Prestw-Frag-1517, Cc1nccn1CCO] | 0.9796 and 1.002 |
| NCC(O)COc1cccc2ccccc12 (stereo not shown) [Prestw-Frag-1389, NCC(O)COc1cccc2ccccc12] | 0.8528 and 1.218 |
| CN1CCN(c2ccc(N)cc2)CC1 [Prestw-Frag-3670, CN1CCN(CC1)c1ccc(N)cc1] | 1.015 |
| O=C(c1ccc(C(F)(F)F)cc1)C1CCCCC1 [Prestw-Frag-3334, FC(F)(F)c1ccc(cc1)C(=O)C1CCCCC1] | 1.014 |
| CCc1cccc2c(CCO)c[nH]c12 [Prestw-Frag-1299, CCc1cccc2c(CCO)c[nH]c12] | 1.255 |
| O=C(O)Cc1ccccc1 [Prestw-Frag-2579, OC(=O)Cc1ccccc1] | 1.086 |
| O=C(O)CCC(=O)Nc1ccccc1 [Prestw-Frag-2383, OC(=O)CCC(=O)Nc1ccccc1] | 0.9265 |
| Clc1ccc(Cn2cnc3ccccc32)cc1 [Prestw-Frag-1165, Clc1ccc(Cn2cnc3ccccc23)cc1] | 0.6294 and 0.7204 |
| NC1CCc2[nH]c3ccccc3c2C1 (stereo not shown) [Prestw-Frag-3709, NC1CCc2[nH]c3ccccc3c2C1] | 1.209 |
| O=C(O)CNC(=O)c1ccccc1 [Prestw-Frag-2576, OC(=O)CNC(=O)c1ccccc1] | 1.001 |
| CN1Cc2c(N)cccc2C(c2ccccc2)C1 (stereo not shown) [Prestw-Frag-1552, CN1CC(c2ccccc2)c2cccc(N)c2C1] | 1.162 |
| CN(C)CCNCc1ccccc1 [Prestw-Frag-1476, CN(C)CCNCc1ccccc1] | 1.113 |
| O=C1COCCN1 [Prestw-Frag-3463, O=C1COCCN1] | 1.252 |
| Cc1cc(-c2ccccc2)nnc1N [Prestw-Frag-1003, Cc1cc(nnc1N)-c1ccccc1] | 1.014 and 1.217 |
| CCN(CC)C(=O)/C=C/c1ccccc1 [Prestw-Frag-3088, CCN(CC)C(=O)\C=C\c1ccccc1] | 0.9663 |
| c1ccc2c(c1)CNc1ccccc1C2 [Prestw-Frag-1722, C1Nc2ccccc2Cc2ccccc12] | 1.196 and 1.047 |
| Oc1cccc2[nH]ccc12 [Prestw-Frag-3696, Oc1cccc2[nH]ccc12] | 0.9739 |
| O=C(O)COc1ccccc1 [Prestw-Frag-2577, OC(=O)COc1ccccc1] | 1.064 |
| Clc1ccc(C(c2ccccc2)N2CCNCC2)cc1 (stereo not shown) [Prestw-Frag-1741, Clc1ccc(cc1)C(N1CCNCC1)c1ccccc1] | 1.086 |
| O=C(O)c1cccnc1Nc1cccc(Cl)c1 [Prestw-Frag-2807, OC(=O)c1cccnc1Nc1cccc(Cl)c1] | 1.808 |
| Clc1cccc2ncccc12 [Prestw-Frag-2593, Clc1cccc2ncccc12] | 0.9438 |
| OCCn1cncn1 [Prestw-Frag-3101, OCCn1cncn1] | 0.9898 |

| SMILES | HNF4a-screening_activity_(mean_of_n=2) |
| --- | --- |
| CN1CCN(c2nccc(N)n2)CC1 [Prestw-Frag-1204, CN1CCN(CC1)c1nccc(N)n1] | 1.248 |
| CN1CCN(c2cc(N)ncn2)CC1 [Prestw-Frag-3262, CN1CCN(CC1)c1cc(N)ncn1] | 1.186 |
| CC(CO)Nc1ccccc1 (stereo not shown) [Prestw-Frag-3755, CC(CO)Nc1ccccc1] | 0.8925 |
| CCC(C(=O)OCCN(CC)CC)c1ccccc1 (stereo not shown) [Prestw-Frag-1343, CCC(C(=O)OCCN(CC)CC)c1ccccc1] | 0.9028 and 1.004 |
| O=C(O)c1ccccn1 [Prestw-Frag-2541, OC(=O)c1ccccn1] | 0.9518 |
| Nc1c(Cl)ccc2nsnc12 [Prestw-Frag-1492, Nc1c(Cl)ccc2nsnc12] | 1.089 |
| Cn1nnnc1S [Prestw-Frag-1032, Cn1nnnc1S] | 1.09 |
| O=c1cc(O)c2ccccc2o1 [Prestw-Frag-1131, Oc1cc(=O)oc2ccccc12] | 1.185 |
| Cc1oncc1C(N)=O [Prestw-Frag-1128, Cc1oncc1C(N)=O] | 0.9735 and 0.9722 |
| Sc1nc2ccccc2[nH]1 [Prestw-Frag-2539, Sc1nc2ccccc2[nH]1] | 1.302 |
| CNCC(c1ccc(OC)cc1)C1(O)CCCCC1 (stereo not shown) [Prestw-Frag-1523, CNCC(c1ccc(OC)cc1)C1(O)CCCCC1] | 1.103 and 1.105 |
| Oc1cccc(CN2CCCCC2)c1 [Prestw-Frag-2809, Oc1cccc(CN2CCCCC2)c1] | 1.12 |
| CCCCc1nc(Cl)c(CO)[nH]1 [Prestw-Frag-3114, CCCCc1nc(Cl)c(CO)[nH]1] | 0.9053 |
| c1ccc(C2CNCCO2)cc1 (stereo not shown) [Prestw-Frag-2958, C1COC(CN1)c1ccccc1] | 1.039 |
| Nc1cccc(C(F)(F)F)c1 [Prestw-Frag-1322, Nc1cccc(c1)C(F)(F)F] | 0.9015 |
| c1ccc2c(c1)NCCO2 [Prestw-Frag-3732, C1COc2ccccc2N1] | 1.144 |
| OCCOc1cccc2[nH]ccc12 [Prestw-Frag-1595, OCCOc1cccc2[nH]ccc12] | 0.8145 and 1.05 |
| CCCOc1ccccc1C(=N)N [Prestw-Frag-1910, CCCOc1ccccc1C(N)=N] | 1.045 and 1.109 |
| COc1ccccc1OCCCO [Prestw-Frag-1335, COc1ccccc1OCCCO] | 0.806 and 0.9658 |
| COc1ccc(CCN2CCC(N)CC2)cc1 [Prestw-Frag-1051, COc1ccc(CCN2CCC(N)CC2)cc1] | 1.433 |
| COc1ccc(OC)c(C(C)O)c1 (stereo not shown) [Prestw-Frag-2208, COc1ccc(OC)c(c1)C(C)O] | 1.098 |
